The record followed here is patent US3963745A, “Method for controlling emesis with N-(1-substituted-3-pyrrolidinyl)benzamides and thiobenzamides” (A. H. Robins Company, Incorporated, priority 1974, dated 1976).

Holding throughout (type): in vivo
Series [1] relates to apomorphine-induced emesis. Put plainly: apomorphine-induced emesis in dogs (anti-emetic effect). To be noted: for ED50: Canis lupus familiaris. As for the experimental part: The anti-emetic properties of the compounds of Formulae I and II were established using a modification of the methods of Chen and Ensor, J. Pharmac. Exp. Ther. 98: 245-250 (1950) and of Leonard et al, J. Pharmac. Exp. Ther. 154, 339-345 (1966). Drug activity was assessed by its ability to reduce the frequency of apomorphine-induced emesis in dogs. The dogs were prescreened for fairly constant emetic responses to the subcutaneous administration of 0.1 mg./kg. of apomorphine hydrochloride, and those which vomited five or more times in the 40-minute period after apomorphine administration were selected for drug studies.
Groups of three dogs were used in preliminary tests and for the determinations of time of peak drug effect. Dose response curves were usually obtained using four drug-treated groups; each group contained at least three dogs. The dogs were fed approximately 17 hours prior to a test. Drugs were administered and at suitable intervals the dogs received 0.1 mg/kg of apormorphine hydrochloride subcutaneously. Frequency of emesis was determined during the next 40 minutes and emesis was counted as the actual expulsion of stomach contents.
In oral studies, drugs were administered in gelatin capsules (controls received an empty capsule). In the subcutaneous studies, drugs were administered in distilled water and/or polyethylene glycol-300.
Dogs were re-used at intervals of not less than one week. The ED50 is the dose which reduces the frequency of emesis of drug treated dogs to a value 50% below that of controls. Mean frequency of emesis for each drug treated group was compared with a mean control value derived by pooling the prior control emetic frequencies for all dogs used on that test day. The difference is expressed as a percentage decrease relative to controls. The per cent decrease in mean frequency of emesis for each drug-treated group (ordinate) was plotted against log dose (abscissa) on semi-log graph sheets. The ED50 was calculated by the method of Goldstein (Biostatistics, An Introductory Test; Pages 156-161; the MacMillan Co., New York, 1964).

The test system of series [2] is catalepsy in rats. Put plainly: Catalepsy in rats. To be noted: Table 7, rats, IP. As for the experimental part: (§1) Drugs were blind tested with positive and negative controls. The procedure used is a modification of the method previously described by Tedeschi et al., Archs. Int. Pharmacodyn. Ther. 122, 129-143 (1959). The modified procedure is as follows.
(§2) Groups of six rats are dosed (IP) with drugs in saline solution and tested hourly over a 6 hour period. A phenothiazine or non-phenothiazine reference standard is tested concomitantly as a positive control; negative controls receive only the saline vehicle. After administration the rats are positioned hourly with each foot on a No. 7 rubber stopper. A rat is considered cataleptic if it remains immobile on the stoppers for five seconds or longer at two or more consecutive hourly observation intervals. […] Exp. Ther. 96, 99-113 (1949).

Series [3] in a line: Catalepsy in rats. To be noted: rat, in vivo, ip. How it is done:
as §1, §2

Setting [4] is: sc, Table 4, dogs, subcutaneous, doses expressed as free base, read-out: ED50, Anti-Emetic Effect of Subcutaneous Administration.
Setting [5] is: sc, Table 7, dogs, subcutaneous, as free base, read-out: Anti-Apomorphine Effect ED50.
Setting [6] is: sc, read-out: ED50, Anti-Emetic Effect of Subcutaneous Administration.
The mark [7] stands for this setting: sc, Table 6, dogs, subcutaneous, as free base, read-out: Anti-Apomorphine Effect ED50.
Where [8] appears, read: Table 5, dogs, oral, doses expressed as free base, read-out: ED50, Anti-Emetic Effect of Oral Administration.

Structures can show the parent of a compound that is named as a salt. Where two headings read alike, the source gives them in different places.

As to `O=C(NC1CCN(C2CCCCC2)C1)c1cccc(Br)c1` (stereo not drawn) [Example 1, N-(1-Cyclohexyl-3-pyrrolidinyl)-3-bromobenzamide], the ED50 in series [1] (setting [4]) came to 0.4 mg/kg. Regarding `O=C(NC1CCN(C2CCCCC2)C1)c1ccccc1F` (stereo not drawn) [Example 2, N-(1-Cyclohexyl-3-pyrrolidinyl)-2-fluorobenzamide hydrochloride], the ED50 in series [1] (setting [4]) stood at 1.6 mg/kg. Consider `CN(C(=O)c1ccc(N)cc1)C1CCN(C2CCCCC2)C1` (stereo not drawn) [Example 4, 4-Amino-N-(1-cyclohexyl-3-pyrrolidinyl)-N-methylbenzamide Cyclohexanesulfamate], for which the ED50 in series [1] (setting [5]) came out at 0.27 mg/kg; in series [1] (sc, dogs, subcutaneous, cyclohexanesulfamate salt dose, read-out: ED50 for subcutaneous administration), 0.43 mg/kg; in series [1] (sc, dogs, subcutaneous, expressed as free base (Example 1P), read-out: ED50 for subcutaneous administration, expressed as free base) it was 0.27 mg/kg. In addition, the blockage of apomorphine induced emesis in series [1] (dogs, oral capsules 2.5 mg./kg., apomorphine after two hours) worked out at 95%. Also, the blockage of emesis in series [1] (dogs, subcutaneous 5.0 mg./kg. (3.12 mg./kg. as free base), apomorphine one hour later, 40-minute period) turned out to be 100%. The “Catalepsy (ED50 or other): no catatonia up to dose” value in the series with catalepsy in rats [2] (as free base) is “no catatonia to 125”. `CN(C)c1ccc(C(=O)N(C)C2CCN(C3CCCCC3)C2)cc1` (stereo not drawn) [Example 6, N-(1-Cyclohexyl-3-pyrrolidinyl)-p-dimethylamino-N-methylbenzamide Fumarate]: the ED50 in series [1] (setting [4]) stood at 1.1 mg/kg.

For `CC(=O)Nc1ccc(C(=O)NC2CCN(C3CCCCC3)C2)cc1` (stereo not drawn) [Example 7, N-(1-Cyclohexyl-3-pyrrolidinyl)-4-acetamidobenzamide], in series [1] (setting [6]), the ED50 came out at 2.4 mg/kg. For `CN1CCC(NC(=O)c2ccccc2)C1.O=C(O)/C=C/C(=O)O` (stereo not drawn) [Example 8(A), N-(1-Methyl-3-pyrrolidinyl)benzamide Fumarate, reference compound], in series [1] (setting [7]), the ED50 is 3.2 mg/kg.

For the compound `COc1cc(N)c(Cl)cc1C(=O)NC1CCN(C)C1` (stereo not drawn) [Example 8(B), 4-Amino-5-chloro-2-methoxy-N-(1-methyl-3-pyrrolidinyl)benzamide, reference compound], the ED50 in series [1] (setting [7]) was determined as 0.053 mg/kg.

As to `CNc1ccc(C(=O)N(C)C2CCN(C3CCCCC3)C2)cc1.Cl.Cl` (stereo not drawn) [Example 9, 4-Methylamino-N-(1-cyclohexyl-3-pyrrolidinyl)-N-methylbenzamide Dihydrochloride], the ED50 in series [1] (setting [4]) was 0.5 mg/kg.

For the compound `O=C(NC1CCN(C2CCCCC2)C1)c1ccc(F)cc1` (stereo not drawn) [Example 10], the ED50 amounted to 0.15 mg/kg in series [1] (setting [6]) and 1.5 mg/kg in series [1] (setting [8]). As for `O=C(NC1CCN(C2CCCCC2)C1)c1ccc(Br)cc1` (stereo not drawn) [Example 11], in series [1] (setting [4]), the ED50 worked out at 0.7 mg/kg.

For the compound `O=C(NC1CCN(C2CCCCC2)C1)c1cc([N+](=O)[O-])cc([N+](=O)[O-])c1` (stereo not drawn) [Example 12], the ED50 in series [1] (setting [6]) is 0.15 mg/kg.

Regarding `O=C(NC1CCN(C2CCCCC2)C1)c1ccc(Cl)c(Cl)c1` (stereo not drawn) [Example 13], in series [1] (setting [4]), the ED50 was 0.28 mg/kg.

Turning to `CCOc1ccc(C(=O)NC2CCN(C3CCCCC3)C2)cc1OCC` (stereo not drawn) [Example 15], in series [1] (setting [4]), the ED50 was found to be 0.66 mg/kg. Consider `O=C(NC1CCN(C2CCCCC2)C1)c1cccc(C(F)(F)F)c1` (stereo not drawn) [Example 16], for which the ED50 in series [1] (setting [4]) came to 0.18 mg/kg. With `O=C(NC1CCN(C2CCCCC2)C1)c1ccc(Cl)cc1` (stereo not drawn) [Example 17], the ED50 in series [1] (setting [4]) was 0.28 mg/kg. On to `COc1cc(C(=O)NC2CCN(C3CCCCC3)C2)cc(OC)c1OC` (stereo not drawn) [Example 18], for which, in series [1] (setting [4]), the ED50 was determined as 0.4 mg/kg. With `O=C(NC1CCN(C2CCCCC2)C1)c1ccc(I)cc1` (stereo not drawn) [Example 20], the ED50 in series [1] (setting [4]) came out at 1.25 mg/kg. In the case of `Nc1ccc(C(=O)NC2CCN(C3CCCCC3)C2)cc1` (stereo not drawn) [Example 23], the ED50 was 1.67 mg/kg in series [1] (setting [4]), 1.7 mg/kg in series [1] (setting [5]) and 2.5 mg/kg in series [1] (setting [8]). Further, the “Catalepsy, percentage of rats cataleptic” value with catalepsy in rats [2] (at 94.2 mg/kg as free base) is listed as 33%. `O=C(NC1CCN(C2CCCCC2)C1)c1ccccc1` (stereo not drawn) [Example 24]: the ED50 in series [1] (setting [4]) and in series [1] (setting [7]) was 0.28 mg/kg in each case.

Regarding `O=C(NC1CCN(C2CCCCC2)C1)c1ccc([N+](=O)[O-])cc1` (stereo not drawn) [Example 25], the ED50 in series [1] (setting [4]) came out at 2.03 mg/kg; in series [1] (setting [5]), 1.8 mg/kg. The same compound registered a TD50 at 6 h in the series “Catalepsy in rats [3]” of 28 mg/kg.

As for `CN(C(=O)c1ccc([N+](=O)[O-])cc1)C1CCN(C2CCCCC2)C1` (stereo not drawn) [Example 27], the ED50 in series [1] (setting [5]) stood at 10 mg/kg. In the series with catalepsy in rats [2] (as free base), the “Catalepsy (ED50 or other): no catatonia up to dose” value was “no catatonia to 100” and the lethal dose is 100 mg/kg. Take `O=C(NC1CCN(C2CCCCC2)C1)c1ccc(Cl)cc1Cl` (stereo not drawn) [Example 32]: in series [1] (setting [6]), the ED50 came to 2.4 mg/kg. For the compound `CSc1ccc(C(=O)NC2CCN(C3CCCCC3)C2)cc1` (stereo not drawn) [Example 33], the ED50 in series [1] (setting [4]) stood at 0.88 mg/kg. On the same count and under the same terms, to `COc1ccc(C(=O)NC2CCN(C3CCCCC3)C2)c(OC)c1` (stereo not drawn) [Example 34] belongs 0.026 mg/kg.

For `CN(C)c1ccc(C(=O)NC2CCN(C3CCCCC3)C2)cc1` (stereo not drawn) [Example 35], the ED50 in series [1] (setting [4]) is 0.89 mg/kg. The same measure, in the same setting: to `Cc1ccc(C(=O)NC2CCN(C3CCCCC3)C2)cc1` (stereo not drawn) [Example 36] belongs 0.31 mg/kg. `COc1cc(N)c(Cl)cc1C(=O)NC1CCN(C2CCCCC2)C1` (stereo not drawn) [Example 37]: the ED50 in series [1] (setting [4]) and in series [1] (setting [7]) was 0.003 mg/kg throughout.
